Reference: ChEMBL document CHEMBL1201862, “PubChem BioAssay data set” (2004)
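Five concentrations, 48 hours, 96-well plates. Here, GI50 denotes the concentration required for 50% inhibition of growth.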 Active and inactive are the calls of the source. Rule as the data show it: active = GI50 up to about 1.1 µM and inactive = higher.

Legend:
Assay in all cases: NCI tumour cell line growth inhibition, 48 h
A549 = test system: A549
DU-145 = test system: DU-145
EKVX = test system: EKVX
HCT-116 = test system: HCT-116
HT-29 = test system: HT-29
Hs-578T = test system: Hs-578T
IGROV-1 = test system: IGROV-1
K562 = test system: K562
MCF7 = test system: MCF7
MDA-MB-231 = test system: MDA-MB-231
MOLT-4 = test system: MOLT-4
NCI-H226 = test system: NCI-H226
NCI/ADR-RES = test system: NCI/ADR-RES
PC-3 = test system: PC-3
RPMI-8226 = test system: RPMI-8226
SF-268 = test system: SF-268
SK-MEL-28 = test system: SK-MEL-28
SK-MEL-2 = test system: SK-MEL-2
SNB-19 = test system: SNB-19
CCRF-CEM = test system: CCRF-CEM

Measured: GI50

Cc1ccc(NC(=O)c2ccccc2C(=O)O)cc1C
inactive: A549 > 100 µM | DU-145 > 100 µM | EKVX > 100 µM | HCT-116 > 100 µM | HT-29 > 100 µM | Hs-578T > 100 µM | IGROV-1 > 100 µM | K562 > 100 µM | MCF7 > 100 µM | MDA-MB-231 > 100 µM | MOLT-4 > 100 µM | NCI-H226 > 100 µM | NCI/ADR-RES > 100 µM | PC-3 > 100 µM | RPMI-8226 > 100 µM | SF-268 > 100 µM | SK-MEL-28 > 100 µM | SK-MEL-2 > 100 µM | SNB-19 > 100 µM

CC1(C)SC2C(NC(=O)Cc3ccccc3)C(=O)N2C1C(=O)O (stereo not drawn)
inactive: A549 > 100 µM | DU-145 > 100 µM | EKVX > 100 µM | HCT-116 > 100 µM | HT-29 > 100 µM | Hs-578T > 100 µM | IGROV-1 > 100 µM | K562 > 100 µM | MCF7 > 100 µM | MDA-MB-231 > 100 µM | MOLT-4 > 100 µM | NCI-H226 34 µM | NCI/ADR-RES > 100 µM | PC-3 > 100 µM | SF-268 > 100 µM | SK-MEL-28 > 100 µM | SK-MEL-2 > 100 µM | SNB-19 > 100 µM

COc1cc2cnc(-c3ccccc3)cc2cc1OC
inactive: A549 28.5 µM | DU-145 37.3 µM | EKVX 3.22 µM | HCT-116 45.6 µM | HT-29 24.9 µM | Hs-578T 12.8 µM | IGROV-1 19.1 µM | K562 30.1 µM | MCF7 18.5 µM | MDA-MB-231 19.1 µM | MOLT-4 20 µM | NCI-H226 17.7 µM | NCI/ADR-RES 26 µM | PC-3 23 µM | RPMI-8226 15.9 µM | SF-268 35.7 µM | SK-MEL-28 33.5 µM | SK-MEL-2 23 µM | SNB-19 24.9 µM

CC(=O)/C(=C/c1ccccc1F)C(=O)c1ccccc1
inactive: A549 57 µM | DU-145 33.6 µM | EKVX 67.1 µM | HCT-116 27.8 µM | HT-29 33.1 µM | Hs-578T 32.4 µM | IGROV-1 44.2 µM | MCF7 37.2 µM | MDA-MB-231 26.1 µM | MOLT-4 2.19 µM | NCI-H226 76.4 µM | NCI/ADR-RES 29.1 µM | PC-3 27.7 µM | RPMI-8226 18.3 µM | SF-268 33.2 µM | SK-MEL-28 53.2 µM | SK-MEL-2 27.5 µM | SNB-19 60.7 µM

C1CCSCCCCSCCCCSCCCCSC1
inactive: A549 > 100 µM | DU-145 > 100 µM | EKVX > 100 µM | HCT-116 > 100 µM | HT-29 > 100 µM | Hs-578T > 100 µM | IGROV-1 > 100 µM | K562 > 100 µM | MCF7 > 100 µM | MDA-MB-231 > 100 µM | NCI-H226 > 100 µM | NCI/ADR-RES > 100 µM | PC-3 > 100 µM | RPMI-8226 > 100 µM | SF-268 > 100 µM | SK-MEL-28 > 100 µM | SK-MEL-2 > 100 µM | SNB-19 > 100 µM

COc1cc(/C=C2/C[C@H]3[C@@H]4CCC5=CC(=O)CC[C@]5(C)[C@H]4CC[C@]3(C)NC2=O)cc(OC)c1OC
inactive: A549 20.6 µM | CCRF-CEM 20.8 µM | DU-145 21 µM | EKVX 24.5 µM | HCT-116 26.2 µM | HT-29 19.3 µM | Hs-578T 23 µM | IGROV-1 24.7 µM | MCF7 17.3 µM | MDA-MB-231 19.7 µM | MOLT-4 10.2 µM | NCI-H226 28.8 µM | NCI/ADR-RES 25.1 µM | PC-3 21.1 µM | RPMI-8226 9.64 µM | SF-268 26.3 µM | SK-MEL-28 29 µM | SK-MEL-2 24.8 µM | SNB-19 45 µM

CC1(C)CN=C(c2ccc3ccccc3c2O)N1
inactive: A549 23.6 µM | CCRF-CEM > 100 µM | DU-145 > 100 µM | EKVX > 100 µM | HCT-116 > 100 µM | Hs-578T > 100 µM | IGROV-1 > 100 µM | K562 > 100 µM | MCF7 > 100 µM | MDA-MB-231 > 100 µM | MOLT-4 > 100 µM | NCI/ADR-RES > 100 µM | PC-3 > 100 µM | RPMI-8226 > 100 µM | SF-268 > 100 µM | SK-MEL-28 > 100 µM | SK-MEL-2 > 100 µM | SNB-19 > 100 µM

Cc1cc2nn(C3CCCCO3)nc2cc1C (stereo not drawn)
inactive: A549 > 100 µM | CCRF-CEM > 100 µM | DU-145 > 100 µM | EKVX > 100 µM | HCT-116 > 100 µM | HT-29 > 100 µM | Hs-578T > 100 µM | IGROV-1 > 100 µM | K562 > 100 µM | MCF7 > 100 µM | MDA-MB-231 > 100 µM | MOLT-4 > 100 µM | NCI-H226 > 100 µM | NCI/ADR-RES > 100 µM | PC-3 > 100 µM | SF-268 > 100 µM | SK-MEL-2 > 100 µM | SNB-19 > 100 µM

CCOC1Oc2ccccc2-c2nc(SC)ncc21 (stereo not drawn)
inactive: A549 > 100 µM | CCRF-CEM > 100 µM | DU-145 96.6 µM | EKVX 36 µM | HCT-116 83.2 µM | HT-29 52.4 µM | Hs-578T 79.8 µM | IGROV-1 35.2 µM | MCF7 66.1 µM | MDA-MB-231 62.8 µM | MOLT-4 50.8 µM | NCI-H226 > 100 µM | NCI/ADR-RES 82.8 µM | PC-3 > 100 µM | RPMI-8226 70 µM | SF-268 > 100 µM | SK-MEL-2 > 100 µM | SNB-19 > 100 µM

CCCCCCCCCCCCCCCCCC(=O)OCC(COC1OC(COP(=O)(O)O)C(O)C(O)C1O)OC(=O)CCCCCCCCCCCCCCCCC (stereo not drawn)
inactive: A549 7.46 µM | CCRF-CEM 4.95 µM | DU-145 9.62 µM | EKVX 7.74 µM | HCT-116 8.83 µM | HT-29 5.32 µM | Hs-578T 6.14 µM | IGROV-1 4.02 µM | K562 9.89 µM | MCF7 8.38 µM | MDA-MB-231 3.04 µM | MOLT-4 7.5 µM | NCI-H226 4.21 µM | NCI/ADR-RES 9.33 µM | PC-3 7.62 µM | RPMI-8226 13.6 µM | SF-268 8.97 µM | SK-MEL-28 9.98 µM | SNB-19 8 µM

O=[N+]([O-])c1ccc(Cl)cc1N/N=C/c1cccs1
inactive: A549 > 100 µM | CCRF-CEM > 100 µM | DU-145 > 100 µM | EKVX > 100 µM | HCT-116 > 100 µM | HT-29 > 100 µM | Hs-578T 72.4 µM | IGROV-1 > 100 µM | K562 > 100 µM | MCF7 9.95 µM | MDA-MB-231 > 100 µM | MOLT-4 > 100 µM | NCI-H226 38.5 µM | NCI/ADR-RES > 100 µM | PC-3 > 100 µM | RPMI-8226 > 100 µM | SF-268 > 100 µM | SK-MEL-28 > 100 µM | SNB-19 > 100 µM
